# Source: patent US6930103B2, “Use of vasopeptidase inhibitors in the treatment of metabolic diseases, nephropathy and advanced glycation end-product associated diseases” (Aventis Pharma Deutschland GmbH, priority 2002, dated 2005)
# Key:
# [1] = test system: Zucker Diabetic Fatty (ZDF) Rats (ZDF Gmi fa/fa); test: Urinary excretion of albumin and creatinine in ZDF rats treated from 10 to 37 weeks of age; format: in vivo, rat; conditions: for Urine excretion Albumin / Urine excretion Albumin/Creatinine: ZDF rats, mean
# Method: The protein and creatinine excretion in the urine of male Zucker Diabetic Fatty (ZDF) Rats (ZDF Gmi fa/fa) and heterozygous control animals (ZDF Gmi −/+) of 10, 17, 27 and 37 weeks age was determined. In further groups, diabetic rats were chronically given either ramipril (1 mg/kg/day, in drinking water) or a compound of formula (II-B) (30 mg/kg/day, in food) over a period from 10 to 37 weeks. The animals were sacrificied after 37 weeks, and their kidneys examined histologically.
# ZDF rats [2] = test: Urinary albumin/creatinine in ZDF rats, treatment starting at an animal age of 6 months; format: in vivo, rat; conditions: start at age 6 months, mean
# ZDF rats [3] = test: Dot blot analysis of kidney AGE subtypes (CML, CEL, pentosidine) in ZDF rats; format: in vivo, rat
# Method: Kidney AGE values were determined by Dot blot analysis (Stracke et al., Exp. Clin. Endocrinol. Diabets 2002, 109, 330-336) and Reversed-phase high performance liquid chromatography or RP-HPLC (Drusch et al., Food Chem. 1999, 65, 547-553).
# Kidney-samples for the dot blot analysis were obtained from 17-week-old male ZDF rats, control rats and ZDF rats treated for seven weeks with 30 mg/kg/d of compound (II-B) and 35 mg/kg/d of compound (III-B). Three animals of each group were sacrificed, the kidneys removed and immediately frozen in liquid nitrogen. Grinding of the kidneys was performed in liquid nitrogen using a freezer mill (Freezer 6750, C3 Analysetechnik GmbH). Kidney sample (10 mg) was dissolved in 1 ml phosphate buffered saline (PBS containing 0.5 g/l Tween 20, 0.5 mM PMSF, […]). The solution was treated two times for five seconds with an ultrasonic cell disrupter (45% power, Bandolin Sonoplus HD 2070), centrifuged for 20 minutes at 4000 rpm and the supernatant was used for dot blot analysis. The nitrocellulose membrane was placed in the dot blot apparatus and washed twice with Tris Buffered Saline (TBS), 100 μl TBS/well. For each sample, 10 μg protein (protein concentration of the samples were determined with the DC Protein Assay, Bio Rad) was diluted in 100 μl TBS and loaded on to the nitrocellulose membrane (Amersham). The membrane was incubated over night in TBS with Tween 20 (TBST; 20 mM Tris, 137 mM NaCl, 0.05% v/v Tween 20) with 5% non-fat dry milk at 4° C. and incubated for 1 hour at room temperature using the following antibody concentration: anti-CML 011 (Biologo) 0.25 μg/ml, anti-CEL (Biologo) 0.25 μg/ml and anti-pentosidine 012 (Biologo) 0.25 μg/ml. After extensive washing in TBST with 5% non-fat dry milk, membranes were exposed to […] anti-mouse IgG antibodies (Dianova) for one hour at room temperature. Membranes were washed again and exposed to the enhanced chemofluorescence detection system (Amersham) according to manufacturer's instructions. Relative fluorescence was determined with the Fluor-Imager 595 (Molecular Dynamics) and quantified using the Image-Quant software. Results were expressed in relative fluorescence (rf) times 10^5 (rf*10^5).
# [4] = test system: Zucker diabetic fatty rats; test: Blood glucose analysis in ZDF rats; format: in vivo, rat; conditions: for blood glucose, mean: ZDF rats
# Method: (§1) Blood glucose and HbA1c was measured in 10- and 17-week-old male Zucker diabetic fatty rats (Genetic Model Inc.), control rats (Genetic Model Inc.) and male ZDF rats treated for seven weeks with 30 mg/kg/d of compound (II-B), 35 mg/kg/d of compound (III-B) and 1 mg/kg/d ramipril. Fifteen animals were analyzed in each group.
# Blood samples for glucose determination were obtained from ZDF rats using standard sampling tubes. Within 30 minutes of collection, samples were separated from the cells by centrifugation. Quantitative determination of blood glucose in serum was performed with an enzymatic in vitro test from Roche Diagnostics GmbH (Gluco-quant, Roche Diagnostics GmbH) using the automated clinical chemistry analyzer Boehringer Mannheim/Hitachi 912.
# [5] = test system: Zucker diabetic fatty rats; test: HbA1c analysis in ZDF rats; format: in vivo, rat; conditions: for HbA1c, mean: ZDF rats
# Method: as §1
# To obtain blood samples for HbA1c determination, disposable capillary tubes were used. HbA1c values were obtained from hemolyzed whole blood samples with a turbidimetric inhibition immunoassay (Tina-quant, Roche Diagnostics GmbH) and hemoglobin concentrations were determined in a second channel on an automated clinical chemistry analyzer (Boehringer Mannheim/Hitachi 912). HbA1c concentration in percent were calculated from HbA1c to total hemoglobin.
# [6] = test system: isolated aortic rings of rabbits; test: Relaxation of aortic rings by acetylcholine in rabbits fed an atherogenic diet; format: in vivo, White New Zealand rabbits; conditions: for Relaxation of aortic rings by acetylcholine: varied diet rabbits, mean ± SEM
# Source text: It was shown in the atherogenic rabbit model (White New Zealand rabbits were fed with 0.25% cholesterol plus 3% coconut oil) that even a short 6 week period of an atherogenic diet leads to sustained endothelial dysfunction, even though the animals received a normal diet for 3 months thereafter. […] The endothelium-dependent relaxation of isolated aortic rings of rabbits as well as the release of nitric oxide and superoxide from endothelial cells serve as measures of endothelial dysfunction. […] (II-B) [table]
# endothelial cells = test: NO and superoxide release from endothelial cells in rabbits fed an atherogenic diet; format: in vivo, White New Zealand rabbits; conditions: varied diet rabbits; mean ± SEM
# Source text: It was shown in the atherogenic rabbit model (White New Zealand rabbits were fed with 0.25% cholesterol plus 3% coconut oil) that even a short 6 week period of an atherogenic diet leads to sustained endothelial dysfunction, even though the animals received a normal diet for 3 months thereafter.
# The endothelium-dependent relaxation of isolated aortic rings of rabbits as well as the release of nitric oxide and superoxide from endothelial cells serve as measures of endothelial dysfunction.
# • Groups: • Standard: 18 weeks normal diet • Atherogenic: 18 weeks atherogenic diet (3% Coconut oil+0.25% Cholesterol) • Varied diet (Var.): 6 weeks atherogenic diet+12 weeks normal diet • Varied Diet+ramipril: 6 weeks atherogenic diet+12 weeks normal diet+ramipril • Varied diet+compound (II-B): 6 weeks atherogenic diet+12 weeks normal diet+cpd. (II-B)
# NO and O2^− are markers for endothelial function: increased relaxation and increased NO levels are beneficial, while increased O2^− formation inhibits the beneficial effects of NO.
# [7] = 17-week-old ZDF rats treated for seven weeks, dot blot
# [8] = age 10 weeks (start of treatment)
# [9] = age 17 weeks (treated for seven weeks)
compound,measurement,setting,value
CC(=O)S[C@H](C(=O)N[C@H]1Cc2ccccc2[C@H]2CCC[C@@H](C(=O)O)N2C1=O)C(C)C [cpd. (II-B)],Urine excretion Albumin,[1]; week 0 of treatment,0.27 mg/kg/h
same,Urine excretion Albumin/Creatinine,[1]; week 0 of treatment,48.56 mg/mmol
same,Urine excretion Albumin,[1]; week 7 of treatment,0.09 mg/kg/h
same,Urine excretion Albumin/Creatinine,[1]; week 7 of treatment,14.30 mg/mmol
same,Urine excretion Albumin,[1]; week 17 of treatment,0.41 mg/kg/h
same,Urine excretion Albumin/Creatinine,[1]; week 17 of treatment,44.63 mg/mmol
same,Urine excretion Albumin,[1]; week 27 of treatment,1.39 mg/kg/h
same,Urine excretion Albumin/Creatinine,[1]; week 27 of treatment,152.71 mg/mmol
same,Effect relative to the ACE inhibitor ramipril,"[1]; nephroprotective effect, compared with ramipril",6-8 fold
same,Albumin/Creatinine,ZDF rats [2]; 6 weeks treatment,135.08 mg/mmol
same,Albumin/Creatinine,ZDF rats [2]; 12 weeks treatment,100.86 mg/mmol
same,Albumin/Creatinine,ZDF rats [2]; Basal,1330.99 mg/mmol
same,"AGE-subtype CEL in the kidneys (anti-CEL), mean",ZDF rats [3]; [7],50.24 rf * 10^5
same,"AGE-subtype CML in the kidneys (anti-CML 011), mean",ZDF rats [3]; [7],32.62 rf * 10^5
same,"AGE-subtype pentosidine in the kidneys (anti-pentosidine 012), mean",ZDF rats [3]; [7],44.99 rf * 10^5
same,Kidney AGE (Nε-(carboxymethyl)lysine or CML) values,"ZDF rats [3]; diabetic rats, summary in words",normalizes
same,AGE values for subtype CEL compared to untreated ZDF rats,"ZDF rats [3]; kidney, dot blot, in words",significantly less
same,AGE values for subtype CML compared to untreated ZDF rats,"ZDF rats [3]; kidney, dot blot, in words",significantly less
same,AGE values for subtype pentosidine compared to untreated ZDF rats,"ZDF rats [3]; kidney, dot blot, in words",significantly less
same,Blood glucose concentration compared to the untreated ZDF rats,"[4]; 17-week-old ZDF rats, in words",significantly lower
same,"blood glucose, mean",[4]; [8],10.67 mM
same,"blood glucose, mean",[4]; [9],21.09 mM
same,Blood glucose value compared with the ACE inhibitor ramipril,[4]; in words,lower values
same,HbA1c values compared to the untreated ZDF rats,"[5]; 17-week-old ZDF rats, in words",significantly lower
same,"HbA1c, mean",[5]; [8],5.69%
same,"HbA1c, mean",[5]; [9],8.24%
same,HbA1c value compared with the ACE inhibitor ramipril,[5]; in words,lower values
same,Relaxation of aortic rings by acetylcholine,[6]; ACh 10^−5 mol/L after phenylephrine 10^−7 mol/L,80.89 ± 6.82%
same,Relaxation of aortic rings by acetylcholine,[6]; ACh 10^−6 mol/L after phenylephrine 10^−7 mol/L,76.4 ± 6.38%
same,Relaxation of aortic rings by acetylcholine,[6]; ACh 10^−7 mol/L after phenylephrine 10^−7 mol/L,59.62 ± 6.43%
same,Relaxation of aortic rings by acetylcholine,[6]; ACh 10^−8 mol/L after phenylephrine 10^−7 mol/L,19.9 ± 3.48%
same,Endothelial dysfunction and atherogenic changes in the blood vessels,"[6]; atherogenic rabbit model, in words",both prevented and reversed
same,NO,endothelial cells,329.19 ± 30.10 nM
same,O2^− (superoxide),endothelial cells,30.18 ± 6.00 nM
